From patent US20260159533A1, “INHIBITORS OF COMPLEMENT FACTORS AND USES THEREOF” (Annexon, Inc., priority 2022, published 2026)
Where a name gives a salt, the structure may show the parent alone.

biological target: T1, human C1s protein (Homo sapiens, UniProt P09871); assay: recombinant C1s enzymatic assay (YLGR-Rh110-dPro substrate hydrolysis, fluorescence); assay type: biochemical; conditions: recombinant human C1s 2.5 nM, substrate YLGR-Rh110-dPro 20 μM, 15 min pre-incubation, 60 min RT; read-out: rec. hC11s pIC50 (converted)
T1 construct: purchased R&D Systems or Complement Technologies 2060-SE or A104
T1 sequence (P09871 16-688): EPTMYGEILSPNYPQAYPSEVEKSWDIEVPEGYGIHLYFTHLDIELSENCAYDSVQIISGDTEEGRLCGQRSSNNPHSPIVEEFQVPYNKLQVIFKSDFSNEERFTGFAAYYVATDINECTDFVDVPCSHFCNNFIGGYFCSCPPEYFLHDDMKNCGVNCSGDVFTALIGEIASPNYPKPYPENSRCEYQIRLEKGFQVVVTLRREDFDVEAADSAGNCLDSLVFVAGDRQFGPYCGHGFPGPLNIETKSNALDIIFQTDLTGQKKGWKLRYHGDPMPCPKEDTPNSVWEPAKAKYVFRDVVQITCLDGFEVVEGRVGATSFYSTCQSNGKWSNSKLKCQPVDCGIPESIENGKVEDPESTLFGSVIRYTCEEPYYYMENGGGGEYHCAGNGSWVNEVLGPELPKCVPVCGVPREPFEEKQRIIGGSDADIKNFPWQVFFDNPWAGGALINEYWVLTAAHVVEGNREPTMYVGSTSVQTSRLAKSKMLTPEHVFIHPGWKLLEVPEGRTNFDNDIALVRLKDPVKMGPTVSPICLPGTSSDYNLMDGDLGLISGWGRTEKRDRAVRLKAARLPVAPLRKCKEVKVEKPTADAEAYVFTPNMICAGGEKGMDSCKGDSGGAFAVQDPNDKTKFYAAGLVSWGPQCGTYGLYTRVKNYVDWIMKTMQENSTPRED
Experimental: Compound testing in the purified or recombinant C1s enzymatic assay C1s is a serine protease; its enzymatic activity is measured in vitro by the hydrolysis of the synthetic substrate YLGR-Rh110-dPro (Kerr F K, O'Brien G, Quinsey N S, Whisstock J C, Boyd S, de la Banda M G, Kaiserman D, Matthews A Y, Bird P I, Pike R N. Elucidation of the substrate specificity of the Cis protease of the classical complement pathway. J. Biol. Chem. (2005) 280, 39510-39514). The enzyme cleaves the substrate with the release of Rh110 which is highly fluorescent. Cis inhibitors prevent the hydrolysis of the substrate thus resulting in a decrease of the signal.
The recombinant C1s enzymatic assay is performed using the human C1s protein (R&D Systems, 2060-SE or Complement Technologies, A104). The assay buffer composition is: 50 mM HEPES pH 7.5 (Sigma, H3375), 150 mM NaCl (Sigma, S7653), 0.2% PEG 8000 (VWR, AA43443-22), 0.01% Pluronic F127 (Sigma, P2243). On the day of the experiment 0.1 mg/mL BSA (Sigma, B4287) is added fresh to the buffer. The test item stock solutions are serially diluted 1:3 or 1:4 or 1:5 with DMSO, 11-point curves, in a 384-well compound plate. Nafamostat concentration curve is always included in the assay plate as a reference control.
The assay plate is prepared by dispensing 0.25 μL from compound plate into a 384-well black assay plate (assay plate, Greiner Fluotrac 200, 781076, VWR 736-0140). The high controls are prepared dispensing in 0.25 μL DMSO in column 23, rows AH or AP and low controls with 0.25 μL of 0.1 μM Nafamostat. Cis solution is prepared as 2× of the 2.5 nM final assay concentration. The YLGR-Rh110-dPro substrate is prepared as 2× of the final assay concentration of 20 μM. 5 μL/well of 2× enzyme solution is dispensed and pre-incubated for 15 min with the compounds. The enzymatic reaction is the started with 5 μL/well of the 2× substrate solution. The plate is incubated for 60 min RT in the dark and fluorescence is measured (ex 485/em 535 nm) using an Envision (PerkinElmer) or an equivalent instrument.

Row | IC50 | SMILES
1 | 0.977 nM | COc1cc(-n2cc(C(F)F)cn2)c(-c2ccc3c(N)cnnc3c2)cc1B(O)O [Example 29, [5-(4-aminocinnolin-7-yl)-4-[4-(difluoromethyl)-1H-pyrazol-1-yl]-2-methoxyphenyl]boronic acid formic acid salt]
2 | 2.24 nM | COc1cc(B(O)O)cc(-c2ccc3c(N)cnnc3c2)c1-n1cc(C(F)F)cn1 [Example 30, [3-(4-aminocinnolin-7-yl)-4-[4-(difluoromethyl)-1H-pyrazol-1-yl]-5-methoxyphenyl]boronic acid formic acid salt]
3 | 1.05 nM | COc1cc(-c2nc[nH]n2)c(-c2ccc3c(N)cnnc3c2)cc1B(O)O [Example 31, [5-(4-aminocinnolin-7-yl)-2-methoxy-4-(1H-1,2,4-triazol-3-yl)phenyl]boronic acid]
4 | 0.832 nM | COc1cc(-c2ncco2)c(-c2ccc3c(N)cnnc3c2)cc1B(O)O [Example 32, [5-(4-aminocinnolin-7-yl)-2-methoxy-4-(1,3-oxazol-2-yl)phenyl]boronic acid formic acid salt]
5 | 1.07 nM | COc1cc(-n2nccn2)c(-c2ccc3c(N)cnnc3c2)cc1B(O)O [Example 33, [5-(4-aminocinnolin-7-yl)-2-methoxy-4-(2H-1,2,3-triazol-2-yl)phenyl]boronic acid]
6 | 1.29 nM | COc1cc(-c2cc[nH]n2)c(-c2ccc3c(N)cnnc3c2)cc1B(O)O [Example 36, [5-(4-aminocinnolin-7-yl)-2-methoxy-4-(1H-pyrazol-3-yl)phenyl]boronic acid formic acid salt]
7 | 0.912 nM | COc1cnn(-c2cc(OC)c(B(O)O)cc2-c2ccc3c(N)cnnc3c2)c1 [Example 37, [5-(4-aminocinnolin-7-yl)-2-methoxy-4-(4-methoxypyrazol-1-yl)phenyl]boronic acid formic acid salt]
8 | 1.02 nM | COc1cc(-c2nccs2)c(-c2ccc3c(N)cnnc3c2)cc1B(O)O [Example 38, [5-(4-aminocinnolin-7-yl)-2-methoxy-4-thiazol-2-yl-phenyl]boronic acid formic acid salt]
9 | 2.69 nM | CC(C)Oc1cc(-n2cccn2)c(-c2ccc3c(N)cnnc3c2)cc1B(O)O [Example 39, [5-(4-aminocinnolin-7-yl)-2-propan-2-yloxy-4-pyrazol-1-ylphenyl]boronic acid formic acid salt]
10 | 1.58 nM | COc1cc(-n2cc(F)cn2)c(-c2ccc3c(N)cnnc3c2)cc1B(O)O [Example 40, [5-(4-aminocinnolin-7-yl)-4-(4-fluoropyrazol-1-yl)-2-methoxyphenyl]boronic acid]
11 | 24.5 nM | Cc1cc(-c2cc[nH]n2)c(-c2ccc3c(N)cnnc3c2)cc1B(O)O [Example 41, [5-(4-aminocinnolin-7-yl)-2-methyl-4-(1H-pyrazol-3-yl)phenyl]boronic acid]
12 | 2.04 nM | Cc1cc(-c2ncco2)c(-c2ccc3c(N)cnnc3c2)cc1B(O)O [Example 42, [5-(4-aminocinnolin-7-yl)-2-methyl-4-oxazol-2-yl-phenyl]boronic acid formic acid salt]
13 | 5.5 nM | COc1cc(-c2c[nH]cn2)c(-c2ccc3c(N)cnnc3c2)cc1B(O)O [Example 45, [5-(4-aminocinnolin-7-yl)-4-(1H-imidazol-4-yl)-2-methoxyphenyl]boronic acid]
14 | 3.89 nM | COc1cc(-c2ncc[nH]2)c(-c2ccc3c(N)cnnc3c2)cc1B(O)O [Example 46, [5-(4-aminocinnolin-7-yl)-4-(1H-imidazol-2-yl)-2-methoxy-phenyl]boronic acid]
15 | 1.7 nM | COc1cc(-n2cccn2)c(-c2ccc3c(N)nnc(C)c3c2)cc1B(O)O [Example 47, [5-(1-amino-4-methyl-phthalazin-6-yl)-2-methoxy-4-pyrazol-1-yl-phenyl]boronic acid]
16 | 3.89 nM | COc1cc(-n2cccn2)c(-c2ccc3c(N)nccc3c2)cc1B(O)O [Example 48, [5-(1-amino-6-isoquinolyl)-2-methoxy-4-pyrazol-1-yl-phenyl]boronic acid formic acid salt]
17 | 1.17 nM | COc1cc(-c2ncc(C)s2)c(-c2ccc3c(N)cnnc3c2)cc1B(O)O [Example 50, [5-(4-aminocinnolin-7-yl)-2-Methoxy-4-(5-methylthiazol-2-yl)phenyl]boronic acid formic acid salt]
18 | 9.55 nM | Cc1cc(-c2nccs2)c(-c2ccc3c(N)cnnc3c2)cc1B(O)O [Example 53, [5-(4-aminocinnolin-7-yl)-2-methyl-4-thiazol-2-yl-phenyl]boronic acid formic acid salt]
19 | 6.31 nM | COc1cc(-c2cn[nH]c2)c(-c2ccc3c(N)cnnc3c2)cc1B(O)O [Example 54, [5-(4-aminocinnolin-7-yl)-2-methoxy-4-(1H-pyrazol-4-yl)phenyl]boronic acid]
20 | 2 nM | COc1cc(-n2cc(N3CCOCC3)cn2)c(-c2ccc3c(N)cnnc3c2)cc1B(O)O [Example 58, [5-(4-aminocinnolin-7-yl)-2-methoxy-4-(4-morpholinopyrazol-1-yl)phenyl]boronic acid formic acid salt]
21 | 15.5 nM | Nc1cnnc2cc(-c3cc(B(O)O)ccc3-c3ccccn3)ccc12 [Example 63, [3-(4-aminocinnolin-7-yl)-4-(2-pyridyl)phenyl]boronic acid formic acid salt]
22 | 12.3 nM | Nc1cnnc2cc(-c3cc(B(O)O)c(Oc4ccccc4)cc3-n3cccn3)ccc12 [Example 64, [5-(4-aminocinnolin-7-yl)-2-phenoxy-4-pyrazol-1-yl-phenyl]boronic acid formic acid salt]
23 | 2.4 nM | Nc1cnnc2cc(-c3cc(B(O)O)cc4c3-n3nccc3CCO4)ccc12 [Example 65, [[10-(4-aminocinnolin-7-yl)-4,5-dihydropyrazolo[5,1-d][1,5]benzoxazepin-8-yl]boronic acid formic acid salt]
24 | 0.692 nM | COc1cnc(-c2cc(OC)c(B(O)O)cc2-c2ccc3c(N)cnnc3c2)s1 [Example 68, [5-(4-aminocinnolin-7-yl)-2-methoxy-4-(5-methoxy-1,3-thiazol-2-yl)phenyl]boronic acid formic acid salt]
25 | 1.26 nM | Nc1cnnc2cc(-c3cc4c(cc3-n3cccn3)OCCOB4O)ccc12 [Example 70, 8-(4-aminocinnolin-7-yl)-7-(1H-pyrazol-1-yl)-3,4-dihydro-1H-2,5,1-benzodioxaborepin-1-ol]
26 | 2.09 nM | CC1COB(O)c2cc(-c3ccc4c(N)cnnc4c3)c(-n3cccn3)cc2O1 (centres unmarked) [Example 71, 7-(1-hydroxy-4-methyl-7-pyrazol-1-yl-3,4-dihydro-2,5,1-benzodioxaborepin-8-yl)cinnolin-4-amine]
27 | 1.12 nM | Nc1cnnc2cc(-c3cc4c(cc3-c3ncco3)OCCOB4O)ccc12 [Example 74, 7-(1-hydroxy-7-oxazol-2-yl-3,4-dihydro-2,5,1-benzodioxaborepin-8-yl)cinnolin-4-amine]
28 | 0.977 nM | COc1cc(-c2ncc(F)s2)c(-c2ccc3c(N)cnnc3c2)cc1B(O)O [Example 75, [5-(4-aminocinnolin-7-yl)-4-(5-fluorothiazol-2-yl)-2-methoxy-phenyl]boronic acid]

Row | SMILES | IC50
29 | Nc1cnnc2cc(-c3cc(B(O)O)c(OC4CC(F)(F)C4)cc3-n3cccn3)ccc12 [Example 34, [5-(4-aminocinnolin-7-yl)-2-(3,3-difluorocyclobutoxy)-4-(1H-pyrazol-1-yl)phenyl]boronic acid formic acid salt] | 11.5 nM
